This note sets out measurements from patent US7713963B2, “Acylated indanyl amines and their use as pharmaceuticals” (sanofi-aventis Deutschland GmbH, priority 2001, dated 2010).

The subject of the test is eNOS promoter. Description: Activation of eNOS transcription (eNOS promoter-luciferase reporter gene assay). It counts as cell-based, human. Conditions: Homo sapiens, 18 h, 18 h incubation; for maximal fold induction: maximum transcription induction ratio (luciferase with compound / solvent alone), read-out: TIR (max); for EC50: Endothelial cell, EC50 of transcription induction ratio, determined graphically, human endothelial cell line, read-out: EC-50. Here is the method: Measurement of activation of eNOS transcription Activation of eNOS transcription was measured as described in detail in Li et al. “Activation of protein kinase C alpha and/or epsilon enhances transcription of the human endothelial nitric oxide synthase gene”, Mol. Pharmacol. 1998; 53: 630-637. Briefly, a 3.5 kB long fragment 5′ of the starting codon of the eNOS gene was cloned, sequenced and cloned in firefly luciferase expression plasmids to monitor activation of the eNOS promoter by reporter gene activity. A human endothelial cell line stable transfected and expressing this promoter-reporter construct was used for compound testing. Cells were incubated for 18 h with compounds. All compounds were dissolved in sterile DMSO. A final concentration of 0.5% DMSO in complete medium was allowed. Induction of reporter gene expression in these cells was measured using a standard luciferase assay system (Promega, Cat. No E150) according to the manufacturer's instructions. Luciferase induction in cells incubated with compounds were compared to those incubated with solvent alone. The ratio of both activities (transcription induction ratio, TIR) was plotted as a function of compound concentration. […] EC50 values of transcription induction ratios as a function of compound concentration were determined graphically.
In general terms: A reporter such as luciferase makes a cellular process visible.

Turning to `O=C(NC1Cc2ccccc2C1)c1cccc(NC(=O)C2CC2)c1` [Compound 376, 3-(CYCLOPROPANECARBONYL-AMINO)-N-INDAN-2-YL-BENZAMIDE], the maximal fold induction turned out to be 2.4 and the EC50 amounted to 5.3 µM.

As to `O=C(C=Cc1cccc2c1CC(NC(=O)c1ccc(F)cc1)C2)Nc1ccc(Cl)cc1` (stereo not drawn) [Compound 413, N-{4-[2-(4-CHLORO-PHENYLCARBAMOYL)-VINYL]-INDAN-2-YL}-4-FLUORO-BENZAMIDE], the maximal fold induction was determined as 2.5 and the EC50 was determined as 8.5 µM.

`COc1ccc(C(=O)NC2Cc3ccccc3C2)cc1` [Compound 291, N-INDAN-2-YL-4-METHOXY-BENZAMIDE]: the maximal fold induction was determined as 2.8 and the EC50 amounted to 0.238 µM.

For `Cc1c(Cl)cccc1C(=O)NC1Cc2ccccc2C1` [Compound 257, 3-CHLORO-N-INDAN-2-YL-2-METHYL-BENZAMIDE], the maximal fold induction was found to be 2.7 and the EC50 came to 4.3 µM.

On to `O=C(NC1Cc2ccccc2C1)c1ccccc1Br` [Compound 272, 2-BROMO-N-INDAN-2-YL-BENZAMIDE], for which the maximal fold induction worked out at 2.9 and the EC50 worked out at 1.6 µM.

For the compound `O=C(NC1Cc2ccccc2C1)c1c(F)cccc1Br` [Compound 358, 2-BROMO-6-FLUORO-N-INDAN-2-YL-BENZAMIDE], the maximal fold induction worked out at 2.5 and the EC50 is 4.7 µM.

As to `O=C(NC1Cc2ccccc2C1)c1ccoc1` [Compound 296, FURAN-3-CARBOXYLIC ACID INDAN-2-YLAMIDE], the maximal fold induction was determined as 2.5 and the EC50 was determined as 13 µM.

Turning to `O=C(NC1Cc2ccccc2C1)c1ccc(Cl)cc1Cl` [Compound 277, 2,4-DICHLORO-N-INDAN-2-YL-BENZAMIDE], the maximal fold induction amounted to 3 and the EC50 came to 4.1 µM.

As for `O=C(NC1Cc2ccccc2C1)c1ccc(-n2ccnc2)cc1` [Compound 328, 4-IMIDAZOL-1-YL-N-INDAN-2-YL-BENZAMIDE], the maximal fold induction was determined as 2.4 and the EC50 amounted to 24 µM.

Consider `O=C(NC1Cc2ccccc2C1)c1cc2cc(Cl)ccc2[nH]1` [Compound 315, 5-CHLORO-1H-INDOLE-2-CARBOXYLIC ACID INDAN-2-YLAMIDE], for which the maximal fold induction was found to be 2.2 and the EC50 came out at 16 µM.

For `Cc1ccc(C(=O)Nc2cccc(C(=O)NC3Cc4ccccc4C3)c2)cc1` [Compound 381, 3-(4-METHYL-BENZOYLAMINO)-BENZOIC ACID INDAN-2-YLAMIDE], the maximal fold induction was determined as 2.5 and the EC50 was determined as 12 µM.

With `Cc1ccc(C)n1-c1ccc(C(=O)NC2Cc3ccccc3C2)cc1` [Compound 327, 4-(2,5-DIMETHYL-PYRROL-1-YL)-N-INDAN-2-YL-BENZAMIDE], the maximal fold induction is 2.5 and the EC50 is 2.6 µM.

For `CCOc1ccc(C(=O)NC2Cc3ccccc3C2)cc1` [Compound 26, 4-ETHOXY-N-INDAN-2-YL-BENZAMIDE], the maximal fold induction was determined as 3.8 and the EC50 amounted to 0.9 µM.

Regarding `O=C(NC1Cc2ccccc2C1)c1cccc(-c2cccnc2)c1` [Compound 432, N-INDAN-2-YL-3-PYRIDIN-3-YL-BENZAMIDE], the maximal fold induction is 2.5 and the EC50 amounted to 9.6 µM.

Turning to `CC1=C(C(=O)NC2Cc3ccccc3C2)Cc2ccccc21` [Compound 251, 3-METHYL-1H-INDENE-2-CARBOXYLIC ACID INDAN-2-YLAMIDE], the maximal fold induction was found to be 2.6 and the EC50 was determined as 13 µM.

In the case of `Cc1cc(C(=O)NC2Cc3ccccc3C2)c(C)n1Cc1ccncc1` [Compound 230, 2,5-DIMETHYL-1-PYRIDIN-4-YLMETHYL-1H-PYRROLE-3-CARBOXYLIC ACID INDAN-2-YLAMIDE], the maximal fold induction came to 4 and the EC50 turned out to be 0.82 µM.

`O=C(NC1Cc2cccc(Br)c2C1)c1ccc(F)cc1` (single isomer, unassigned) [Compound 396A, N-(4-BROMO-INDAN-2-YL)-4-FLUORO-BENZAMIDE]: the maximal fold induction stood at 3.55 and the EC50 came to 0.6 µM.

As to `O=C(NC1Cc2ccc(F)cc2C1)c1ccc(F)cc1` (stereo not drawn) [Compound 4, 4-FLUORO-N-(5-FLUORO-INDAN-2-YL)-BENZAMIDE], the maximal fold induction is 2.95 and the EC50 amounted to 3 µM.

As for `Cc1c(C(=O)NC2Cc3ccccc3C2)oc2ccccc12` [Compound 319, 3-METHYL-BENZOFURAN-2-CARBOXYLIC ACID INDAN-2-YLAMIDE], the maximal fold induction was determined as 2.4 and the EC50 worked out at 25 µM.

Take `O=C(NC1Cc2ccccc2C1)c1ccc(C(F)(F)F)nc1` [Compound 236, N-INDAN-2-YL-6-TRIFLUOROMETHYL-NICOTINAMIDE]: the maximal fold induction was determined as 2 and the EC50 was found to be 22 µM.

Take `CCNc1ccc(C(=O)NC2Cc3ccccc3C2)cc1` [Compound 268, 4-ETHYLAMINO-N-INDAN-2-YL-BENZAMIDE]: the maximal fold induction was 3 and the EC50 is 0.485 µM.

On to `CS(=O)(=O)c1ccc(C(=O)NC2Cc3ccccc3C2)c(Cl)c1` [Compound 312, 2-CHLORO-N-INDAN-2-YL-4-METHANESULFONYL-BENZAMIDE], for which the maximal fold induction came out at 2.2 and the EC50 worked out at 16 µM.

As for `O=C(NC1Cc2ccccc2C1)c1c(F)ccc(F)c1F` [Compound 274, 2,3,6-TRIFLUORO-N-INDAN-2-YL-BENZAMIDE], the EC50 stood at 21 µM.

In the case of `Cc1cc(C(=O)NC2Cc3ccccc3C2)ccc1Cl` [Compound 27, 4-CHLORO-3-METHYL-N-INDAN-2-YL-BENZAMIDE], the maximal fold induction was 3.6 and the EC50 was found to be 0.2 µM.

Turning to `CC(C)Oc1ccc(C(=O)NC2Cc3ccccc3C2)cc1` [Compound 28, 4-ISOPROPYLOXY-N-INDAN-2-YL-BENZAMIDE], the maximal fold induction turned out to be 4.4 and the EC50 amounted to 2.5 µM.

As for `CC(C)C(=O)Nc1cccc(C(=O)NC2Cc3ccccc3C2)c1` [Compound 372, N-INDAN-2-YL-3-ISOBUTYRYLAMINO-BENZAMIDE], the maximal fold induction came out at 2.7 and the EC50 worked out at 1.6 µM.

For the compound `CCOc1cccc(C(=O)NC2Cc3ccccc3C2)c1` [Compound 306, 3-ETHOXY-N-INDAN-2-YL-BENZAMIDE], the maximal fold induction is 2.7 and the EC50 came to 0.263 µM.

Consider `O=C(NC1Cc2ccccc2C1)c1ccccc1Cl` [Compound 275, 2-CHLORO-N-INDAN-2-YL-BENZAMIDE], for which the maximal fold induction came out at 3 and the EC50 is 0.559 µM.

For `O=C(NC1Cc2c(I)ccc(I)c2C1)c1ccc(F)cc1` [Compound 429, N-(4,7-DIIODO-INDAN-2-YL)-4-FLUORO-BENZAMIDE], the maximal fold induction is 2.8 and the EC50 worked out at 0.6 µM.

With `O=C(NC1Cc2ccccc2C1)c1cccc(Cl)c1Cl` [Compound 276, 2,3-DICHLORO-N-INDAN-2-YL-BENZAMIDE], the maximal fold induction was determined as 3 and the EC50 stood at 0.157 µM.

Consider `Cc1ccc(C(=O)NC2Cc3ccccc3C2)cc1C` [Compound 29, 3,4-DIMETHYL-N-INDAN-2-YL-BENZAMIDE], for which the maximal fold induction came to 3.8 and the EC50 was 0.8 µM.

Consider `Cc1cc(C(=O)NC2Cc3ccccc3C2)c(C)s1` [Compound 368, 2,5-DIMETHYL-THIOPHENE-3-CARBOXYLIC ACID INDAN-2-YLAMIDE], for which the maximal fold induction is 2.5 and the EC50 was 17 µM.
